For data set [1], the target named is T1, Recombinant rhinovirus 3C protease, serotype 14 (Human rhinovirus 14, UniProt P03303).
T1 construct: Recombinant rhinovirus 3C proteases; made in house
Briefly: Inhibition of rhinovirus 3C protease (FRET assay, kobs/[I]), serotype 14. In kind it is biochemical. Particulars: HRV-14; for kinact/KI: pH 7.6, read-out: kobs/[I] (3C protease inhibition activity). The procedure: Inhibition of Rhinovirus 3C Protease:
Stock solutions (50 mM, in DMSO) of various compounds were prepared; dilutions were in the same solvent. Recombinant rhinovirus 3C proteases (see Birch et al., “Purification of recombinant human rhinovirus 14 3C protease expressed in Escherichia coli,” Protein Expr. Pur. (1995), vol. 6(5), 609-618) from serotypes 14, 16, and 2 were prepared by the following standard chromatographic procedures: (1) ion exchange using Q Sepharose Fast Flow from Pharmacia; (2) affinity chromatography using Affi-Gel Blue from Biorad; and (3) sizing using Sephadex G-100 from Pharmacia. Each assay sample contained 2% DMSO, 50 mM tris pH 7.6, 1 mM EDTA, a test compound at the indicated concentration, approximately 1 μM substrate, and 50-100 nM protease. The kobs/I values were obtained from reactions initiated by addition of enzyme rather than substrate. RVP activity was measured in the fluorescence resonance energy transfer assay. The substrate was (N-terminal) DABCYL-([…]-EDANS. In the uncleaved peptide, the EDANS fluorescence was quenched by the proximal DABCYL moiety. When the peptide was cleaved, the quenching was relieved, and activity was measured as an increase in fluorescence signal. The tabulated data in the column designated kobs/[I] were measured from progress curves in enzyme start experiments.

The test system of data set [2] is H1-HeLa cells. Briefly: Cytotoxicity (CC50) in mock-infected H1-HeLa cells, XTT dye reduction. Type of data set: cell-based, human. The procedure:
(§1) In this cell protection assay, the ability of compounds to protect cells against HRV infection was measured by the XTT dye reduction method, which is described in Weislow et al., J. Natl. Cancer Inst. […] H1-HeLa cells were infected with HRV-14 at a multiplicity of infection (m.o.i.) of 0.13 (virus particles/cell) or mock-infected with medium only. Infected or mock-infected cells were resuspended at 8×10^5 cells per mL, and incubated with appropriate concentrations of the compounds to be tested. Two days later, XTT/PMS was added to test plates and the amount of formazan produced was quantified spectrophotometrically at 450/650 nm. […] The therapeutic index (TI) was calculated by dividing the CC50 value by the EC50 value.
(§2) All strains of human rhinovirus (HRV) for use in this assay were purchased from American Type Culture Collection (ATCC), except for HRV serotype-14 (produced from the infectious cDNA clone constructed by Dr. Robert Rueckert, Institute for Molecular Virology, University of Wisconsin, Madison, Wis.). HRV stocks were propagated and viral assays were performed in H1-HeLa cells (ATCC). Cells were grown in minimal essential medium with 10% fetal bovine serum, available from Life Technologies (Gaithersburg, Md.).
(§3) Coxsackievirus types A-21 (CAV-21) and B3 (CVB3) were purchased from American Type Culture Collection (ATCC, Rockville, Md.). Virus stocks were propagated and antiviral assays were performed in H1-HeLa cells (ATCC). Cells were grown in minimal essential medium with 10% fetal bovine serum (Life Technologies, Gaithersburg, Md.). The ability of the compounds of this invention to protect cells against either CAV-21 or CVB3 infection was measured by the XTT dye reduction method. This method is described in Weislow et al., J. Natl. Cancer Inst. […] H1-HeLa cells were infected with CAV-21 or CVB3 at a multiplicity of infection (m.o.i.) of 0.025 or 0.075, respectively, or mock-infected with medium only. H1-HeLa cells were plated at 4×10^4 cells per well in a 96-well plate and incubated with appropriate concentrations of the test compound. One day (CVB3) or two days (CAV-21) later, XTT/PMS was added to test plates and the amount of formazan produced was quantified spectrophotometrically at 450/650 nm. […] The therapeutic index (TI) was calculated by dividing the CC50 by the EC50.
(Tetrazolium assays rely on reduction of a dye to a coloured formazan, in cell work by metabolically active cells.)

Data set [3] deals with strains of human rhinovirus (HRV). Briefly: Antirhinoviral H1-HeLa cell culture assay (XTT cell protection, EC50), other HRV strains. In kind it is cell-based, human rhinovirus in H1-HeLa cells. Particulars: read-out: EC50. The protocol:
(§4) Antirhinoviral H1-HeLa Cell Culture Assay:
In this cell protection assay, the ability of compounds to protect cells against HRV infection was measured by the XTT dye reduction method, which is described in Weislow et al., J. Natl. Cancer Inst. (1989), vol. 81, 577-586. H1-HeLa cells were infected with HRV-14 at a multiplicity of infection (m.o.i.) of 0.13 (virus particles/cell) or mock-infected with medium only. Infected or mock-infected cells were resuspended at 8×10^5 cells per mL, and incubated with appropriate concentrations of the compounds to be tested. Two days later, XTT/PMS was added to test plates and the amount of formazan produced was quantified spectrophotometrically at 450/650 nm. […] The therapeutic index (TI) was calculated by dividing the CC50 value by the EC50 value.
as §2

Data set [4] has as its system HRV-14. Description: Antirhinoviral H1-HeLa cell culture assay (XTT cell protection, EC50), HRV-14. Type of data set: cell-based, human rhinovirus (HRV) serotype-14 in H1-HeLa cells. The protocol: as §4, §1, §2
Data set [5] is described as follows: Cytotoxicity (CC50) in mock-infected H1-HeLa cells, XTT dye reduction. Type of data set: cell-based, human. Particulars: human, H1-HeLa cells, mock-infected; line of HRV-14. The protocol: as §1, §2, §3
[6] abbreviates: Rhinovirus B, HRV14, H1-HeLa, HRV-14, read-out: EC50.

Molecules are shown by their SMILES. Where two headings read alike, the source gives them in different places. A value given as a limit tells only on which side of the number the result lay.

T1 sequence (P03303 1538-1719): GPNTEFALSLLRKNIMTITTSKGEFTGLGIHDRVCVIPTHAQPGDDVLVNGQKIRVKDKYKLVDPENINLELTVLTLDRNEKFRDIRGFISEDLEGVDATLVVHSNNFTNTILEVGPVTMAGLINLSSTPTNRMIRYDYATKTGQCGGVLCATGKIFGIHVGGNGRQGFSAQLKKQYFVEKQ

One may read the CC50 as the concentration at which the toxic effect on the cells reaches its halfway point. The low end stands for greater toxicity to the cells, the high end for lower toxicity to the cells. For orientation: EC50 means the concentration giving half of the maximal effect. In the case of `Cc1cc(C(=O)Nc2cccn(C(Cc3ccc(F)c(F)c3)C(=O)N[C@H](/C=C/C(=O)OCC(C)(C)C)C[C@@H]3CCNC3=O)c2=O)no1` (relative stereo) [Compound 47, trans-(2′S,3″″″S,4S)-4-[3′-(3″,4″-Difluorophenyl)-2′-(3′″-{[1″″-(5′″″-methylisoxazol-3′″″-yl)methanoyl]amino}-2″″-oxo-2″″H-pyridin-1″″-yl)propanoylamino]-5-(2″″″-oxopyrrolidin-3″″″-yl)pent-2-enoic Acid 2,2-Dimethylpropyl Ester], the “kobs/[I] (3C protease inhibition activity)” value in data set [1] is given as 1,400,000 M^−1s^−1. For the same compound, the CC50 in data set [2] (line of HRV-1A), in data set [2] (line of HRV-2), in data set [2] (line of HRV-3), in data set [2] (line of HRV-9), in data set [2] (line of HRV-10) and in data set [2] (line of HRV-14) was over 10000 nM throughout. For the same compound, the CC50 in data set [2] (line of HRV-16), in data set [2] (line of HRV-25) and in data set [2] (line of HRV-39) was over 10000 nM in each case. Moreover, the EC50 in data set [3] (HRV-1A) came out at 148 nM; in data set [3] (HRV-2), 133 nM; in data set [3] (HRV-3) it was 18 nM; in data set [3] (HRV-9) it was 121 nM; in data set [3] (HRV-10), 114 nM; in data set [3] (HRV-16) it was 49 nM. Also, the EC50 in data set [3] (HRV-25) amounted to 193 nM; in data set [3] (HRV-39), 168 nM; in data set [4] (HRV-14, read-out: EC50) it was 40 nM.
As to `CCOC(=O)/C=C/[C@H](C[C@@H]1CCNC1=O)NC(=O)[C@H](Cc1ccccc1)n1ccc2cc[nH]c2c1=O` [Compound 3], in data set [1], the kinact/KI is 2900 M⁻¹ s⁻¹. Besides, in data set [5], the CC50 at 2 days was over 10000 nM. In addition, a half-maximal response in data set [4] (Rhinovirus B, HRV14, H1-HeLa) (EC50) required 1270 nM.
For the compound `CCOC(=O)/C=C/[C@H](CCC(N)=O)NC(=O)[C@H](Cc1ccc(F)cc1)n1cccc(NC(=O)OCc2ccccc2)c1=O` [Compound 7, trans-(2′S,4S)-4-[2′-(3″-Benzyloxycarbonylamino-2″-oxo-2″H-pyridin-1″-yl)-3′-(4′″-fluorophenyl)propionylamino]-6-carbamoylhex-2-enoic Acid Ethyl Ester], in data set [1], the kinact/KI came out at 81000 M⁻¹ s⁻¹. Besides, the CC50 at 2 days in data set [5] is over 10000 nM. Besides, the half-maximal effective concentration (EC50) in data set [4] (setting [6]) was 14 nM.
`CCOC(=O)/C=C/[C@H](CCC(N)=O)NC(=O)[C@H](Cc1ccccc1)n1cccc(NC(C)=O)c1=O` [Compound 8, trans-(2′S,4S)-4-[2′-(3″-Acetylamino-2″-oxo-2″H-pyridin-1″-yl)-3′-phenypropionylamino]-6-carbamoylhex-2-enoic Acid Ethyl Ester]: in data set [1], the kinact/KI was found to be 7660 M⁻¹ s⁻¹. Also, the 50% cytotoxic concentration (CC50) at 2 days in data set [5] was over 10000 nM. Further, the EC50 in data set [4] (setting [6]) is 888 nM.
On the same counts, the results for `CCOC(=O)/C=C/[C@H](CCC(N)=O)NC(=O)[C@H](Cc1ccccc1)n1cccc(NC(=O)C(C)(C)C)c1=O` [Compound 9, trans-(2′S,4S)-6-Carbamoyl-4-{2′-[3″-(2′″,2′″-dimethylpropionylamino)-2″-oxo-2″H-pyridin-1″-yl]-3′-phenylpropionylamino}hex-2-enoic Acid Ethyl Ester] are 5040 M⁻¹ s⁻¹, over 10000 nM and 518 nM.
On the same counts, the results for `CCOC(=O)/C=C/[C@H](CCC(N)=O)NC(=O)[C@H](Cc1ccc(F)c(F)c1)n1cccc(NC(=O)OCc2ccccc2)c1=O` [Compound 11, trans-(2′S,4S)-4-[2′-(3″-Benzyloxycarbonylamino-2″-oxo-2″H-pyridin-1″-yl)-3′-(3′″,4′″-difluorophenyl)propionylamino]-6-carbamoylhex-2-enoic Acid Ethyl Ester] are 193000 M⁻¹ s⁻¹, over 10000 nM and under 3.2 nM.
On the same counts, the results for `CCOC(=O)/C=C/[C@H](CCC(N)=O)NC(=O)[C@H](Cc1ccccc1)n1ccc(C)c(NC(=O)OCc2ccccc2)c1=O` [Compound 12, trans-(2′S,4S)-4-[2′-(3″-Benzyloxycarbonylamino-4″-methyl-2″-oxo-2″H-pyridin-1″-yl)-3′-phenylpropionylamino]-6-carbamoylhex-2-enoic Acid Ethyl Ester] are 25800 M⁻¹ s⁻¹, over 10000 nM and 75 nM.
As for `CCOC(=O)/C=C/[C@H](CCC(N)=O)NC(=O)[C@H](CC1CCCCC1)n1cccc(NC(=O)OCc2ccccc2)c1=O` [Compound 15, trans-(2′S,4S)-4-[2′-(3″-Benzyloxycarbonylamino-2″-oxo-2″H-pyridin-1″-yl)-3′-cyclohexylpropionylamino]-6-carbamoyl-hex-2-enoic Acid Ethyl Ester], the kinact/KI in data set [1] was determined as 6500 M⁻¹ s⁻¹. The CC50 at 2 days in data set [5] was over 10000 nM. In data set [4] (setting [6]), the EC50 was determined as 178 nM.
For `O=C1OCC/C1=C\[C@H](C[C@@H]1CCNC1=O)NC(=O)[C@H](Cc1ccc(F)cc1)n1cccc(NC(=O)C2CCCC2)c1=O` [Compound 16, trans-(2′″S,2′″S,3′″″S)-Cyclopentanecarboxylic acid(1-{2′-(4″-fluorophenyl)-1′-[2′-(2″″-oxo-dihydrofuran-3″″-ylidene)-1-(2′″″-oxopyrrolidin-3′″″-ylmethyl)ethylcarbamoyl]ethyl}-2-oxo-1,2-dihydropyridin-3-yl)amide], in that order: 74000 M⁻¹ s⁻¹, over 10000 nM and 325 nM.
On the same counts, the results for `CCOC(=O)/C=C/[C@H](CCC(N)=O)NC(=O)Cn1cccc(NC(=O)OCc2ccccc2)c1=O` [Compound 17, trans-(4S)-4-[2′-(3″-Benzyloxycarbonylamino-2″-oxo-2″H-pyridin-1″-yl)acetylamino]-6-carbamoylhex-2-enoic Acid Ethyl Ester] are 348 M⁻¹ s⁻¹, over 10000 nM and over 10000 nM.
On the same counts, the results for `CCOC(=O)/C=C/[C@H](CCC(N)=O)NC(=O)[C@H](Cc1ccccc1)n1ccc(C)c(NC(=O)c2cc(C)on2)c1=O` [Compound 18, trans-(2′S,4S)-6-Carbamoyl-4-(2′-{4″-methyl-3″-[(5′″-methylisoxazole-3′″-carbonyl)amino]-2″-oxo-2″H-pyridin-1″-yl}-3′-phenylpropionylamino)hex-2-enoic Acid Ethyl Ester] are 116000 M⁻¹ s⁻¹, over 10000 nM and 125 nM.

For the origin of these results see patent US6514997B2, “Antipicornaviral compounds and compositions, their pharmaceutical uses, and materials for their synthesis” (Agouron Pharmaceuticals, Inc., priority 1999, dated 2003).
